Consider 2 compounds from US20250195431A1, “LIPID NANOPARTICLES FOR TARGETED DELIVERY OF MRNA” (Trustees of Tufts College, priority 2022, published 2025).

One test deals with IFN-γ-secreting T cells. The experiment in a line: T cell response by ELISPOT after two doses of spike mRNA/LNP. The arrangement: species or system mice. To be noted: mouse, in vivo.
For test [1], the system named is Firefly luciferase expression. In words: In vivo optimization of Lipid 88 formulations, intramuscular (I.M.) administration, bioluminescence. Details: species or system mice. As to conditions: mouse.
Experimental: Various formulations of mRNA/LNPs comprising lipid 88 were tested in vivo, including a plurality of ratios of ionizable lipids to helper lipids, and ratios of RNA to lipids. […] The luc mRNA/LNPs were then given to both adult and neonatal mice via various routes of administration (e.g., intravenously, intramuscularly, or through facial vein). After a period of time post injection (e.g., 6-80 hours), substrates of luciferase were administered to the animals and whole-body imaging was performed using IVIS imaging system.
A further test relates to IgG anti-spike antibody. The format is in vivo. As to conditions: mice, I.M., two doses.
The next test deals with Exon 6 of Angltl 3. In words: Base editing with mRNA encoding ABE8e and sgRNA_SA or sgRNA_SD using lipids (306O12B, L88 and L10). To be noted: among 306O12B.
The test system of another test is Angptl3. In words: ABE8e mRNA/sgRNA/LNPs injected to rodents: base editing and serum biomarkers. To be noted: in vivo.

Experimental for Angptl3: Significance measured with one way ANOVA. *P<0.05 **P<0.01 ***P<0.001 ****P<0.0001.
Blood taken on day 7. […] Significance measured with one way ANOVA *P<0.05 **P<0.01 ***P<0.001 ****P<0.0001.
Significance measured by one-way ANOVA.
Next LNPs (e.g., ABE8e mRNA/sgRNA/LNPs comprising lipid 88) were injected to rodents. In some cases, one dose of 3 mg/kg LNPs was administered. In some cases, 2 doses of 3 mg/kg LNPs were administered 48 hours apart. […] Significance measured with one way ANOVA. *P<0.05 **P<0.01 ***P<0.001 ****P<0.0001. Seven days post administration of the LNPs, blood samples were collected from treated animals, and various biomarkers were measured, including Angptl3, cholesterol, triglyceride, ALT, AST, and IL-6. […] Significance measured with one way ANOVA *P<0.05 **P<0.01 ***P<0.001 ****P<0.0001. […] Significance measured with one way ANOVA *P<0.05 **P<0.01 ***P<0.001 ****P<0.0001. […] Significance measured by one-way ANOVA. […] Significance measured by one-way ANOVA.

In the case of `CCCCCCCCSSCCOC(=O)CCN(CCCN(C)CCCN(CCC(=O)OCC(CC)CCCC)CCC(=O)OCC(CC)CCCC)CCC(=O)OCC(CC)CCCC` (stereo not drawn) [Lipid 65], the “T cell response (ELISPOT), comparison of LNPs” value with IFN-γ-secreting T cells is recorded as “highest T cell response”.
`CCCCCCC(CCCC)COC(=O)OCCOC(=O)CCN(CCCN(C)CCCN(CCC(=O)OCCOC(=O)OCC(CCCC)CCCCCC)CCC(=O)OCCOC(=O)OCC(CCCC)CCCCCC)CCC(=O)OCCOC(=O)OCC(CCCC)CCCCCC` (stereo not drawn) [Lipid 88]: the “delivery of luc mRNA (bioluminescence over time)” value in test [1] is on record as “enhanced delivery of luc mRNA to the mice compared with LNPs formulated with 113O12B”. Besides, the “T cell response (ELISPOT), comparison of LNPs” value with IFN-γ-secreting T cells is “highest T cell response”. In addition, in the test on IgG anti-spike antibody, the “anti-spike IgG titer (ELISA), comparison of LNPs” value is reported as “highest anti-spike IgG titer”. Besides, the “transfection and editing efficiency” value with Exon 6 of Angltl 3 was roughly 60%. The “percent of base editing, single dose vs double dose” value with Angptl3 is listed as “maximal editing was reached with single dose”.
